PMC10981727, “Design, synthesis and bioactivity study on oxygen-heterocyclic-based pyran analogues as effective P-glycoprotein-mediated multidrug resistance in MCF-7/ADR cell” (Scientific Reports, 2024)
Where two headings read alike, the source gives them in different places.

Columns and labels:
PC-3 = assay: MTT viability assay, PC-3; type: cell-based; details: for IC50: MTT, 24 h incubation, mean ± standard error
Protocol: (§1) Using concentrations ranging from 0 to 100 μM against PC-3, SKOV-3, and HeLa cancerogenic cell lines, target compounds 4a–l were assessed for their anticancer activities[53] and compared with the commercially available Vinblastine and Doxorubicin. […] The compounds with the greatest cytotoxic activity against the cancerous cell lines PC-3, SKOV-3, and HeLa were 4a–c, 4g, and 4h. […] We selected the cytotoxic active compounds 4a–c, 4g, and 4h to be evaluated against MCF-7/ADR cancerogenic and HFL-1 and WI-38 non-cancerogenic cell lines (Figs. 7, 8 and Table 1).
(§2) The tumor cell lines (PC-3, SKOV-3, and HeLa), resistant cell strains (MCF-7/ADR) and the normal cell lines, (HFL-1, WI-38) were obtained from the American Type Culture Collection (ATCC, Rockville, MD, USA).
(§3) The tumor cell lines were suspended in medium at concentration 5 × 10^4 cells well^−1 in Corning® 96-well tissue culture plates and then incubated for 24 h. The tested compounds with concentrations ranging from 0 to 100 μM were then added into 96-well plates (six replicates) to achieve six different concentrations for each compound. Six vehicle controls with media or 0.5% DMSO were run for each 96 well plate as a control. After incubating for 24 h, the numbers of viable cells were determined by the MTT test[53]. Briefly, the media was removed from the 96 well plates and replaced with 100 μl of fresh culture RPMI 1640 medium without phenol red then 10 μl of the 12 mM MTT stock solution (5 mg of MTT in 1 ml of PBS) to each well including the untreated controls. The 96-well plates were then incubated at 37 °C and 5% CO2 for 4 h. An 85-μl aliquot of the media was removed from the wells, and 50 μl of DMSO was added to each well and mixed thoroughly with the pipette and incubated at 37 °C for 10 min. Then, the optical density was measured at 590 nm with the microplate reader (Sunrise, TECAN, Inc, USA) to determine the number of viable cells and the percentage of viability was calculated as […] where ODt is the mean optical density of wells treated with the tested sample and ODc is the mean optical density of untreated cells. The relation between surviving cells and drug concentration is plotted to get the survival curve of each tumor cell line after treatment with the specified compound. The 50% inhibitory concentration (IC50), the concentration required to cause toxic effects in 50% of intact cells, was estimated from graphic plots of the dose response curve for each concentration.

SKOV-3 = assay: MTT viability assay, SKOV-3; type: cell-based; details: for IC50: MTT, 24 h incubation, mean ± standard error; for times more potency than Doxorubicin, SKOV-3 / times more potency than Vinblastine, SKOV-3: ratio of IC50 values
Protocol: as §1, §2, §3

HeLa = assay: MTT viability assay, HeLa; type: cell-based; details: 24 h incubation, mean ± standard error
Protocol: as §1, §2, §3

MCF-7/ADR = assay: MTT viability assay, resistant MCF-7/ADR; type: cell-based; details: for IC50: MTT, 24 h exposure, mean ± standard error; for activity against MCF-7/ADR cell (in words): with regard to Doxorubicin
Protocol: as §1, §2, §3

human fetal lung (HFL-1) = assay: MTT viability assay, normal HFL-1; type: cell-based; details: HFL1, normal cell line, 24 h, mean ± standard error
Protocol: as §1, §2, §3

[1] = system: human diploid fibroblasts (WI-38); assay: MTT viability assay, normal WI-38; type: cell-based; details: normal cell line, 24 h, mean ± standard error
Protocol: as §1, §2, §3

MCF-7/ADR cells [2] = assay: Cell cycle assay (propidium iodide flow cytometry); type: cell-based; details: treated at IC50 value for 24 h; for percentage of MCF-7/ADR cells in S phase (%DIP S): untreated control 29.61%
Protocol: The most powerful recently synthesized substances 4a–c on regulating cell cycle progression of MCF-7/ADR cells was analyzed by the flow cytometry, exploiting the FACS Calibers (Becton Dickinson). […] Cell cycle progression results of compounds 4a and 4b show cell cycle arrest at S phase with 41.17% and 34.62% respectively compared to 29.61% of the negative untreated control. […] Cell cycle arrest and distribution were done using Propidium Iodide Flow Cytometry Kit (ab139418, Abcam) as previously described. […] The DNA content in each cell nucleus was determined by a FACS Calibur flow cytometer (BD Biosciences, Franklin Lakes, NJ, USA).

MCF-7/ADR cells [3] = assay: Annexin V-FITC/PI apoptosis assay; type: cell-based; details: treated at IC50 value for 24 h; for necrosis (upper left quadrant, PI / Annexin V-FITC plot): control 1.56%; for total apoptosis percentage: equals sum of the three quadrants
Protocol: P-gp inhibits apoptosis by preventing the release of cytochrome c which is mediated by the intrinsic mitochondrial pathway. Also, blocking cell cycle progression, inducing apoptosis or the combined effect of both are one of the indicated mechanisms for the cytotoxic effect of the chemotherapeutic drugs. Therefore, further assessment of the pivotal relationship between the newly synthesized MCF-7/ADR anticancer compounds and apoptosis was measured by the means of the Annexin V/PI double staining flow cytometric assay.
Apoptosis assay was performed with an Annexin V-FITC/PI double staining apoptosis detection kit (K101, Biovison) using a flow cytometer. […] Cells were harvested by the trypsinization, washed twice with 4 °C PBS, and re-suspended in the binding buffer. Subsequently, the Annexin V-FITC and Propidium iodide (PI) solutions were added to stain the cells before the analysis by the flow cytometry, where a minimum of 10,000 cells per sample were acquired. The Annexin V-FITC binding (FL1) and PI (FL2) were analyzed, using the Cell Quest Pro software (BD Biosciences).

P-gp [4] = biological target: T1, P-gp (Homo sapiens, UniProt P08183); assay: in vitro; details: MCF-7/ADR cells (cell lysate)
T1 sequence (P08183 whole entry): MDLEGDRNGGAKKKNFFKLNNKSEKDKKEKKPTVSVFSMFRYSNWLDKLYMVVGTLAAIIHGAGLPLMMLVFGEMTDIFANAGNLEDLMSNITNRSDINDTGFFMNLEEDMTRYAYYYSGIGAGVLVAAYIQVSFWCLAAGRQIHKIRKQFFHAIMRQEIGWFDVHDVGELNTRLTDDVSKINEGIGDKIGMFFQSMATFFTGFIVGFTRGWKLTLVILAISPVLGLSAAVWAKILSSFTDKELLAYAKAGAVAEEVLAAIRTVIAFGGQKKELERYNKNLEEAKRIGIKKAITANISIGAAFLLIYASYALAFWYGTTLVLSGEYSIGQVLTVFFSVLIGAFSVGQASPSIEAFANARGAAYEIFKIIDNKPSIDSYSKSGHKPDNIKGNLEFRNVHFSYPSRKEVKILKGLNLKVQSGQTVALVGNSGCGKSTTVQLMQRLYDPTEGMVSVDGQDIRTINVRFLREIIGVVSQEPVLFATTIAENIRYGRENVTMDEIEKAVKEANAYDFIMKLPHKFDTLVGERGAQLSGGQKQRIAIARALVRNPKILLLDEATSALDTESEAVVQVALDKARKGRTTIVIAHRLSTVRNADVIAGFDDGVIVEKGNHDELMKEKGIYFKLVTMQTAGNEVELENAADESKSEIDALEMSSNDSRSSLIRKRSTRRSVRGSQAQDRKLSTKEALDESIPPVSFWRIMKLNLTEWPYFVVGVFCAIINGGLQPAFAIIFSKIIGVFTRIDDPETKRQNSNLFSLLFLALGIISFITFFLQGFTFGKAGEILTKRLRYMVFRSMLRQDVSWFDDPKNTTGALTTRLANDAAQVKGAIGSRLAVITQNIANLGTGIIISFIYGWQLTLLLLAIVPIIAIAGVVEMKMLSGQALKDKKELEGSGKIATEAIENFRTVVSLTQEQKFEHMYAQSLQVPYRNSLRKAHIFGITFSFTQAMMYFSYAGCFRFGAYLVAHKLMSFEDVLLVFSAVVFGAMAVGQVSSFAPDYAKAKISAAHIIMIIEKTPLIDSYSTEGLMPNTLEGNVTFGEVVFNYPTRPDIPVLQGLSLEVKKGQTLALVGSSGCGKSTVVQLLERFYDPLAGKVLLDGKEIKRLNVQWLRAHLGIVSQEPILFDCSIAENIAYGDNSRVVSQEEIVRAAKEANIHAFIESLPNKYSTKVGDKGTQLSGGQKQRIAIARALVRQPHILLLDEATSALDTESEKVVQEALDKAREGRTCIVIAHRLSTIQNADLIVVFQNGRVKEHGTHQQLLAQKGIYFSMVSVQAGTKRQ
Protocol: (§4) The content of P-gp in the MCF-7/ADR cell lysates after incubation with varying conc. […] Absorption was recorded at 450 nm with a Spectramax Gemini fluorescence microplate reader (Molecular Devices, Sunnyvale, CA, USA)[78].

P-gp [5] = biological target: T1, P-gp; assay: cell-based
Protocol: Absorbance at 450 nm of each well was measured using Spectramax Gemini fluorescence microplate reader (Molecular Devices, Sunnyvale, CA, USA). The total content of Rhodamine in each sample was determined by comparison with a Rhodamine standard curve.

MCF-7 = system: MCF-7; design: method as in PMID 31586716; details: Fig. 5, 9-Br first generation derivatives; cited from earlier work
HCT-116 = system: HCT-116; design: method as in PMID 31586716; details: Fig. 5, 9-Br first generation derivatives; cited from earlier work
HepG-2 = system: HepG-2; design: method as in PMID 31586716; details: Fig. 5, 9-Br first generation derivatives; cited from earlier work
P-gp [6] = biological target: T1, P-gp
Protocol: as §4

| IC50 (PC-3; Homo sapiens, PC-3) [µM] | IC50 (SKOV-3; Homo sapiens, SK-OV-3) [µM] | IC50 (HeLa; Homo sapiens, HeLa) [µM] | IC50 (MCF-7/ADR; Homo sapiens, NCI/ADR-RES) [µM] | melting point [°C] | IC50 at 48 h (P-gp [4]) [µM] | IC50 (P-gp [5]) [µM] | Compound | times more potency than Doxorubicin, SKOV-3 (SKOV-3) [times] | times more potency than Vinblastine, SKOV-3 (SKOV-3) [times] | IC50 (human fetal lung (HFL-1)) [µM] | IC50 [1] [µM] | total apoptosis percentage (MCF-7/ADR cells [3]) [%] | other results |
| --- | --- | --- | --- | --- | --- | --- | --- | --- | --- | --- | --- | --- | --- |
| 1.8 ± 0.3 | 0.6 ± 0.2 | 1.5 ± 0.3 | 9.5 ± 0.3 | 272 | 34.7 | 30.9 | N#CC1=C(N)Oc2ccc3ccc(O)cc3c2C1c1ccc(F)cc1 (stereo not shown) [4a, 3-Amino-1-(4-fluorophenyl)-9-hydroxy-1H-benzo[f]chromene-2-carbonitrile] | 1.8 | 5.3 | 69.8 ± 0.3 | 83.7 ± 1.1 | 31.98 | percentage of MCF-7/ADR cells in S phase (%DIP S) (MCF-7/ADR cells [2]): 41.17%; necrosis (upper left quadrant, PI / Annexin V-FITC plot) (MCF-7/ADR cells [3]): 16.42% |
| 3.3 ± 0.5 | 0.7 ± 0.2 | 2.4 ± 0.2 | 5 ± 0.1 | 262 to 263 | 15.4 | 13.3 | N#CC1=C(N)Oc2ccc3ccc(O)cc3c2C1c1ccccc1Cl (stereo not shown) [4b, 3-Amino-1-(2-chlorophenyl)-9-hydroxy-1H-benzo[f]chromene-2-carbonitrile] | 1.6 | 4.6 | 72 ± 0.2 | 61.1 ± 0.1 | 43.51 | percentage of MCF-7/ADR cells in S phase (%DIP S) (MCF-7/ADR cells [2]): 34.62% |
| 2.3 ± 2.2 | 0.8 ± 0.1 | 2.1 ± 0.2 | 10.7 ± 0.3 | 260 to 261 | 27.3 | 21.5 | N#CC1=C(N)Oc2ccc3ccc(O)cc3c2C1c1cccc(Cl)c1 (stereo not shown) [4c, 3-Amino-1-(3-chlorophenyl)-9-hydroxy-1H-benzo[f]chromene-2-carbonitrile] | 1.4 | 4 | 56.5 ± 1.2 | 58.2 ± 1.1 | 36.17 | percentage of MCF-7/ADR cells in G2/M phase (%DIP G2/M) (MCF-7/ADR cells [2]; untreated control 15.01%): 29.54% |
| 0.9 ± 0.4 | 0.7 ± 0.8 | 0.9 ± 1.5 | 30.5 ± 0.7 | 229 to 230 |  |  | COc1ccc(C2C(C#N)=C(N)Oc3ccc4ccc(O)cc4c32)cc1 (stereo not shown) [4g, 3-Amino-1-(4-methoxyphenyl)-9-hydroxy-1H-benzo[f]chromene-2-carbonitrile] | 1.6 | 4.6 | 77.5 ± 0.1 | 84.5 ± 1.1 |  | times more potent than Doxorubicin, PC-3 (PC-3; ratio of IC50 values, PC-3): 1.4 times; times more potent than Vinblastine, PC-3 (PC-3; ratio of IC50 values, PC-3): 8.3 times; activity against MCF-7/ADR cell (in words) (MCF-7/ADR): inactive |
| 0.7 ± 0.4 | 0.6 ± 0.1 | 0.9 ± 0.4 | 19.2 ± 0.7 | 262 to 263 |  |  | N#CC1=C(N)Oc2ccc3ccc(O)cc3c2C1c1ccc([N+](=O)[O-])cc1 (stereo not shown) [4h, 3-Amino-1-(4-nitrophenyl)-9-hydroxy-1H-benzo[f]chromene-2-carbonitrile] | 1.8 | 5.3 | 84.9 ± 0.1 | 79.4 ± 0.1 |  | times more potent than Vinblastine, PC-3 (PC-3; ratio of IC50 values, PC-3): 10.7 times; activity against MCF-7/ADR cell (in words) (MCF-7/ADR): inactive |
|  |  |  |  |  |  |  | N#CC1=C(N)Oc2ccc3ccc(Br)cc3c2C1c1ccc(Cl)c(Cl)c1 (stereo not shown) [compound 4] |  |  |  |  |  | IC50 (MCF-7): 7.61 µM; IC50 (HCT-116): 25 µM; IC50 (HepG-2): 0.47 µM |
|  |  |  |  |  |  |  | COc1c(Br)cc(Br)cc1C1C(C#N)=C(N)Oc2ccc3ccc(Br)cc3c21 (stereo not shown) [compound 5] |  |  |  |  |  | IC50 (MCF-7): 3.67 µM; IC50 (HCT-116): 0.58 µM; IC50 (HepG-2): 0.71 µM |
|  |  |  |  |  |  |  | Doxorubicin [reference compound] |  |  |  |  | 29.59 | IC50 (PC-3): 1.3 ± 0.3 µM; IC50 (SKOV-3): 1.1 ± 0.2 µM; IC50 (HeLa): 1.5 ± 0.3 µM; IC50 (MCF-7/ADR): 18.6 ± 0.2 µM; necrosis (upper left quadrant, PI / Annexin V-FITC plot) (MCF-7/ADR cells [3]): 3.33%; IC50 (P-gp [6]): 50.9 µM |
